Experimental data: US20070049564A1 (Wyeth, priority 2005, published 2007)
Values after ≈ are worked out from the molar mass of the structure shown. Read-outs that look alike come from different tables or passages of the source.

Columns and labels:
E. coli GC 2231 = test: MIC, broth microdilution; conditions: Escherichia coli
E. coli GC 2232 = test: MIC, broth microdilution; conditions: Escherichia coli
E. coli GC 2272 = test: MIC, broth microdilution; conditions: Escherichia coli
E. coli GC 4560 = test: MIC, broth microdilution; conditions: Escherichia coli
E. coli GC 6465 = test: MIC, broth microdilution; conditions: Escherichia coli
E. coli GC 3226 = test: MIC, broth microdilution; conditions: Escherichia coli
Experimental: (§1) Antimicrobial susceptibility testing. The in vitro activities of the antibiotics are determined by the broth microdilution method as recommended by the National Committee for Clinical Laboratory Standards (NCCLS) (1). Mueller-Hinton II broth (MHBII)(BBL Cockeysville, Md.) is the medium employed in the testing procedures. Microtiter plates containing serial dilutions of each antimicrobial agent are inoculated with each organism to yield the appropriate density (10^5 CFU/ml) in a 100 μl final volume. The plates are incubated for 18-22 hours at 35° C. in ambient air.
Representative compounds were first incubated in mouse serum for an hour prior to the in vitro testing against a panel of selected gram-positive and gram-negative bacteria strains. All compounds were also pre-incubated in water for an hour prior to testing as control. Representative compounds of Formula I were incubated in human serum prior to MIC determination.

E. coli GC 2203 = test: MIC, broth microdilution; conditions: Escherichia coli
S. typhimurium GC 2172 = test: MIC, broth microdilution; conditions: Salmonella enterica, TYPHIMURIUM
S. aureus GC 6466 = test: MIC, broth microdilution; conditions: Staphylococcus aureus
S. aureus GC 6467 = test: MIC, broth microdilution; conditions: Staphylococcus aureus
Experimental: as §1
(§2) Representative compounds were first incubated in mouse serum for an hour prior to the in vitro testing against a panel of selected gram-positive and gram-negative bacteria strains. All compounds were also pre-incubated in water for an hour prior to testing as control.

S. aureus GC 4536 = test: MIC, broth microdilution; conditions: Staphylococcus aureus
S. aureus GC 6469 = test: MIC, broth microdilution; conditions: Staphylococcus aureus
E. faecalis GC 4555 = test: MIC, broth microdilution; conditions: Enterococcus faecalis
E. faecalis GC 2265 = test: MIC, broth microdilution; conditions: Enterococcus faecalis
E. faecalis GC 2267 = test: MIC, broth microdilution; conditions: Enterococcus faecalis
Experimental: as §1, §2

E. faecium GC 2243 = test: MIC, broth microdilution; conditions: Enterococcus faecium
Experimental: as §1, §2

S. pneumoniae* GC 4465 = test: MIC, broth microdilution; conditions: Streptococcus pneumoniae
S. agalactiae GC 4564 = test: MIC, broth microdilution; conditions: Streptococcus agalactiae
E. coli = test: Range of MIC for E. coli strains; conditions: Escherichia coli
Staph. = test: Range of MIC for Staph. strains, including MRSA; conditions: Staphylococcus aureus
[1] = read-out: MINIMAL INHIBITORY CONCENTRATION MIC, Human Serum
[2] = read-out: MINIMAL INHIBITORY CONCENTRATION MIC, Mouse Serum
[3] = read-out: MINIMAL INHIBITORY CONCENTRATION MIC, Water

## CCCCOC(=O)N(CC(=O)Nc1cc(N(C)C)c2c(c1O)C(=O)C1=C(O)[C@]3(O)C(=O)C(C(N)=O)=C(O)[C@@H](N(C)C)[C@@H]3C[C@@H]1C2)C(C)(C)C [Example 58, butyl 2-{[(5aR,6aS,7S,10aS)-9-(aminocarbonyl)-4,7-bis(dimethylamino)-1,8,10a,11-tetrahydroxy-10,12-dioxo-5,5a,6,6a,7,10,10a,12-octahydrotetracen-2-yl]amino}-2-oxoethyl(tert-butyl)carbamate]
E. coli GC 2231; GC2231, read-out: MINIMAL INHIBITORY CONCENTRATION MIC, Human Serum
  MIC: > 64 µg/mL
E. coli GC 2231; GC2231, read-out: MINIMAL INHIBITORY CONCENTRATION MIC, Mouse Serum
  MIC: > 64 µg/mL
E. coli GC 2231; GC2231, read-out: MINIMAL INHIBITORY CONCENTRATION MIC, Water
  MIC: > 64 µg/mL
E. coli GC 2232; GC2232, read-out: MINIMAL INHIBITORY CONCENTRATION MIC, Human Serum
  MIC: > 64 µg/mL
E. coli GC 2232; GC2232, read-out: MINIMAL INHIBITORY CONCENTRATION MIC, Mouse Serum
  MIC: > 64 µg/mL
E. coli GC 2232; GC2232, read-out: MINIMAL INHIBITORY CONCENTRATION MIC, Water
  MIC: > 64 µg/mL
E. coli GC 2272; GC2272, read-out: MINIMAL INHIBITORY CONCENTRATION MIC, Human Serum
  MIC: > 64 µg/mL
E. coli GC 2272; GC2272, read-out: MINIMAL INHIBITORY CONCENTRATION MIC, Mouse Serum
  MIC: > 64 µg/mL
E. coli GC 2272; GC2272, read-out: MINIMAL INHIBITORY CONCENTRATION MIC, Water
  MIC: > 64 µg/mL
E. coli GC 4560; GC4560, read-out: MINIMAL INHIBITORY CONCENTRATION MIC, Human Serum
  MIC: 4 µg/mL (≈ 5.83 µM)
E. coli GC 4560; GC4560, read-out: MINIMAL INHIBITORY CONCENTRATION MIC, Mouse Serum
  MIC: 4 µg/mL (≈ 5.83 µM)
E. coli GC 4560; GC4560, read-out: MINIMAL INHIBITORY CONCENTRATION MIC, Water
  MIC: 4 µg/mL (≈ 5.83 µM)
E. coli GC 6465; GC6465, read-out: MINIMAL INHIBITORY CONCENTRATION MIC, Human Serum
  MIC: > 64 µg/mL
E. coli GC 6465; GC6465, read-out: MINIMAL INHIBITORY CONCENTRATION MIC, Mouse Serum
  MIC: > 64 µg/mL
E. coli GC 6465; GC6465, read-out: MINIMAL INHIBITORY CONCENTRATION MIC, Water
  MIC: > 64 µg/mL
E. coli GC 3226; GC3226, read-out: MINIMAL INHIBITORY CONCENTRATION MIC, Human Serum
  MIC: > 64 µg/mL
E. coli GC 3226; GC3226, read-out: MINIMAL INHIBITORY CONCENTRATION MIC, Mouse Serum
  MIC: > 64 µg/mL
E. coli GC 3226; GC3226, read-out: MINIMAL INHIBITORY CONCENTRATION MIC, Water
  MIC: > 64 µg/mL
E. coli GC 2203; GC2203, read-out: MINIMAL INHIBITORY CONCENTRATION MIC, Human Serum
  MIC: > 64 µg/mL
E. coli GC 2203; GC2203, read-out: MINIMAL INHIBITORY CONCENTRATION MIC, Mouse Serum
  MIC: > 64 µg/mL
E. coli GC 2203; GC2203, read-out: MINIMAL INHIBITORY CONCENTRATION MIC, Water
  MIC: > 64 µg/mL
S. typhimurium GC 2172; [1]
  MIC: > 64 µg/mL
S. typhimurium GC 2172; [2]
  MIC: > 64 µg/mL
S. typhimurium GC 2172; [3]
  MIC: > 64 µg/mL
S. aureus GC 6466; GC6466, read-out: MINIMAL INHIBITORY CONCENTRATION MIC, Human Serum
  MIC: 4 µg/mL (≈ 5.83 µM)
S. aureus GC 6466; GC6466, read-out: MINIMAL INHIBITORY CONCENTRATION MIC, Mouse Serum
  MIC: 2 µg/mL (≈ 2.92 µM)
S. aureus GC 6466; GC6466, read-out: MINIMAL INHIBITORY CONCENTRATION MIC, Water
  MIC: 4 µg/mL (≈ 5.83 µM)
S. aureus GC 6467; GC6467, read-out: MINIMAL INHIBITORY CONCENTRATION MIC, Human Serum
  MIC: 4 µg/mL (≈ 5.83 µM)
S. aureus GC 6467; GC6467, read-out: MINIMAL INHIBITORY CONCENTRATION MIC, Mouse Serum
  MIC: 2 µg/mL (≈ 2.92 µM)
S. aureus GC 6467; GC6467, read-out: MINIMAL INHIBITORY CONCENTRATION MIC, Water
  MIC: 4 µg/mL (≈ 5.83 µM)
S. aureus GC 4536; GC4536, read-out: MINIMAL INHIBITORY CONCENTRATION MIC, Human Serum
  MIC: 4 µg/mL (≈ 5.83 µM)
S. aureus GC 4536; GC4536, read-out: MINIMAL INHIBITORY CONCENTRATION MIC, Mouse Serum
  MIC: 2 µg/mL (≈ 2.92 µM)
S. aureus GC 4536; GC4536, read-out: MINIMAL INHIBITORY CONCENTRATION MIC, Water
  MIC: 4 µg/mL (≈ 5.83 µM)
S. aureus GC 6469; GC6469, read-out: MINIMAL INHIBITORY CONCENTRATION MIC, Human Serum
  MIC: 4 µg/mL (≈ 5.83 µM)
S. aureus GC 6469; GC6469, read-out: MINIMAL INHIBITORY CONCENTRATION MIC, Mouse Serum
  MIC: 2 µg/mL (≈ 2.92 µM)
S. aureus GC 6469; GC6469, read-out: MINIMAL INHIBITORY CONCENTRATION MIC, Water
  MIC: 4 µg/mL (≈ 5.83 µM)
E. faecalis GC 4555; GC4555, read-out: MINIMAL INHIBITORY CONCENTRATION MIC, Human Serum
  MIC: 4 µg/mL (≈ 5.83 µM)
E. faecalis GC 4555; GC4555, read-out: MINIMAL INHIBITORY CONCENTRATION MIC, Mouse Serum
  MIC: 4 µg/mL (≈ 5.83 µM)
E. faecalis GC 4555; GC4555, read-out: MINIMAL INHIBITORY CONCENTRATION MIC, Water
  MIC: 8 µg/mL (≈ 11.7 µM)
E. faecalis GC 2265; GC2265, read-out: MINIMAL INHIBITORY CONCENTRATION MIC, Human Serum
  MIC: 4 µg/mL (≈ 5.83 µM)
E. faecalis GC 2265; GC2265, read-out: MINIMAL INHIBITORY CONCENTRATION MIC, Mouse Serum
  MIC: 4 µg/mL (≈ 5.83 µM)
E. faecalis GC 2265; GC2265, read-out: MINIMAL INHIBITORY CONCENTRATION MIC, Water
  MIC: 4 µg/mL (≈ 5.83 µM)
E. faecalis GC 2267; GC2267, read-out: MINIMAL INHIBITORY CONCENTRATION MIC, Human Serum
  MIC: 4 µg/mL (≈ 5.83 µM)
E. faecalis GC 2267; GC2267, read-out: MINIMAL INHIBITORY CONCENTRATION MIC, Mouse Serum
  MIC: 2 µg/mL (≈ 2.92 µM)
E. faecalis GC 2267; GC2267, read-out: MINIMAL INHIBITORY CONCENTRATION MIC, Water
  MIC: 4 µg/mL (≈ 5.83 µM)
E. faecium GC 2243; GC2243, read-out: MINIMAL INHIBITORY CONCENTRATION MIC, Human Serum
  MIC: 4 µg/mL (≈ 5.83 µM)
E. faecium GC 2243; GC2243, read-out: MINIMAL INHIBITORY CONCENTRATION MIC, Mouse Serum
  MIC: 2 µg/mL (≈ 2.92 µM)
E. faecium GC 2243; GC2243, read-out: MINIMAL INHIBITORY CONCENTRATION MIC, Water
  MIC: 4 µg/mL (≈ 5.83 µM)
S. pneumoniae* GC 4465; [1]
  MIC: 4 µg/mL (≈ 5.83 µM)
S. pneumoniae* GC 4465; [2]
  MIC: 2 µg/mL (≈ 2.92 µM)
S. pneumoniae* GC 4465; [3]
  MIC: 2 µg/mL (≈ 2.92 µM)
S. agalactiae GC 4564; GC4564, read-out: MINIMAL INHIBITORY CONCENTRATION MIC, Human Serum
  MIC: 16 µg/mL (≈ 23.3 µM)
S. agalactiae GC 4564; GC4564, read-out: MINIMAL INHIBITORY CONCENTRATION MIC, Mouse Serum
  MIC: 8 µg/mL (≈ 11.7 µM)
S. agalactiae GC 4564; GC4564, read-out: MINIMAL INHIBITORY CONCENTRATION MIC, Water
  MIC: 8 µg/mL (≈ 11.7 µM)
E. coli; 20 h, read-out: Range of MIC, E. coli (Mouse Serum)
  MIC: > 64 µg/mL
E. coli; read-out: Minimum inhibitory concentration (MIC), E. coli (Human Serum)
  MIC: > 64 µg/mL
E. coli; read-out: Minimum inhibitory concentration (MIC), E. coli (water)
  MIC: > 64 µg/mL
E. coli; read-out: Range of MIC, E. coli (Water)
  MIC: > 64 µg/mL
Staph.; MRSA, read-out: Range of MIC, Staph (Mouse Serum)
  MIC: 2 to 4 µg/mL (≈ 2.92 to 5.83 µM)
Staph.; MRSA, read-out: Range of MIC, Staph (Water)
  MIC: 4 to 8 µg/mL (≈ 5.83 to 11.7 µM)
Staph.; read-out: Minimum inhibitory concentration (MIC), Staph (Human Serum)
  MIC: 4 µg/mL (≈ 5.83 µM)
Staph.; read-out: Minimum inhibitory concentration (MIC), Staph (Water)
  MIC: 4 to 8 µg/mL (≈ 5.83 to 11.7 µM)
